Experiments:
[1] = Oral administration of oxycodone prodrugs co-dosed with trypsin inhibitor Compound 109 to rats; type: in vivo, rat
[2] = Oral administration of hydrocodone prodrugs KC-40 or KC-50 co-dosed with Compound 109 to rats; conditions: rats, PO
[3] = Spacer leaving group cyclization release rate in pH 7.4 phosphate buffer
[4] = Pharmacokinetics following PO administration of Compound KC-55 to rats; conditions: oxycodone in rat plasma, oxycodone 10 mg/kg (28 μmol/kg)
[5] = Oral administration of Compound KC-55 co-dosed with Compound 109 to rats; conditions: male, Sprague Dawley, rat, plasma, 36 umol/kg

N=C(N)c1ccc2cc(OC(=O)c3ccc(N=C(N)N)cc3)ccc2c1 [Compound 109, 6-carbamimidoylnaphthalen-2-yl 4-(diaminomethyleneamino)benzoate]
effect of co-dosed trypsin inhibitor on release of oxycodone by prodrugs KC-12 and KC-17 [1]: ability to attenuate release of oxycodone | effect of co-dosed trypsin inhibitor on release of hydrocodone by prodrugs KC-40 and KC-50 [2]: ability to attenuate release of hydrocodone

COc1ccc2c3c1O[C@H]1C(OC(=O)N4CCCC[C@@H]4CN)=CC[C@@]4(O)[C@@H](C2)N(C)CC[C@]314 [Compound KC-18, N-(oxycodone-6-enol-carbonyl)-R-(piperidine-2-methylamine)]
half-life at 2.18 mM [3]: 52.5 ± 0.96 min

COc1ccc2c3c1O[C@H]1C(=O)CC[C@@]4(O)[C@@H](C2)N(C)CC[C@]314 [Oxycodone, oxycodone]
OC Cmax ± sd [4]: 14.7 ± 6.5^ ng/mL | Cmax [5]: 18.8 ng/mL

— patent US8685916B2, “Opioid prodrugs with heterocyclic linkers” (Signature Therapeutics, Inc., priority 2011, dated 2014)
